Results as given in PMC12638379, “An innovative approach to development of new pyrazolylquinolin-2-one hybrids as dual EGFR and BRAF^V600E inhibitors” (Molecular Diversity, 2025).
Like-named read-outs stand apart in the source and are kept apart here.

Tested on: NCI 60 cancer cell lines
Test: NCI anticancer screening over a panel of 60 cancer cells, single concentration 10 µM
Format: cell-based, human
Details: Homo sapiens, read-out: % Growth Inhibition (GI %)
Method in brief: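 Primary single-dose screen at 10 µM over the NCI panel of 60 human tumour cell lines (leukemia, CNS, lung, colon, kidney, ovary, breast, prostate). The standard NCI Developmental Therapeutics Program protocol was used.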

Compound: C/C(=N\Nc1ccc(C(=O)O)cc1)c1cnn(-c2cc(=O)[nH]c3ccc(Cl)cc23)c1C [Compound 4i, (E)-4-(2-(1-(1-(6-chloro-2-oxo-1,2-dihydroquinolin-4-yl)-5-methyl-1H-pyrazol-4-yl)ethylidene)hydrazineyl)benzoic acid]
- inhibition at 10 µM (786-0, Renal cancer 786-0, 10 μM): < 5%
- inhibition at 10 µM (A498, Renal cancer A498, 10 μM): < 5%
- inhibition at 10 µM (A549, Non-small cell lung cancer A549/ATCC, 10 μM): < 5%
- inhibition at 10 µM (ACHN, Renal cancer ACHN, 10 μM): < 5%
- inhibition at 10 µM (BT-549, Breast cancer BT-549, 10 μM): < 5%
- inhibition at 10 µM (CAKI-1, Renal cancer CAKI-1, 10 μM): 10.8%
- inhibition at 10 µM (CCRF-CEM, Leukemia CCRF-CEM, 10 μM): < 5%
- inhibition at 10 µM (COLO 205, Colon cancer COLO 205, 10 μM): < 5%
- inhibition at 10 µM (DU-145, Prostate cancer DU-145, 10 μM): < 5%
- inhibition at 10 µM (EKVX, Non-small cell lung cancer EKVX, 10 μM): < 5%
- inhibition at 10 µM (HCC 2998, Colon cancer HCC-2998, 10 μM): < 5%
- inhibition at 10 µM (HCT-15, Colon cancer HCT-15, 10 μM): < 5%
- inhibition at 10 µM (HCT-116, Colon cancer HCT-116, 10 μM): < 5%
- inhibition at 10 µM (HL-60, Leukemia HL-60(TB), 10 μM): 5.88%
- inhibition at 10 µM (HOP-62, Non-small cell lung cancer HOP-62, 10 μM): < 5%
- inhibition at 10 µM (HOP-92, Non-small cell lung cancer HOP-92, 10 μM): 36.7%
- inhibition at 10 µM (HT-29, Colon cancer HT29, 10 μM): < 5%
- inhibition at 10 µM (Hs-578T, Breast cancer HS 578T, 10 μM): 6.25%
- inhibition at 10 µM (IGROV-1, Ovarian cancer IGROV1, 10 μM): < 5%
- inhibition at 10 µM (K562, Leukemia K-562, 10 μM): 7.48%
- inhibition at 10 µM (KM12, Colon cancer KM12, 10 μM): < 5%
- inhibition at 10 µM (LOX IMVI, Melanoma LOX IMVI, 10 μM): < 5%
- inhibition at 10 µM (Leukemia SR, 10 μM): < 5%
- inhibition at 10 µM (MCF7, Breast cancer MCF7, 10 μM): 8.38%
- inhibition at 10 µM (MDA-MB-231, Breast cancer MDA-MB-231/ATCC, 10 μM): 12.9%
- inhibition at 10 µM (MDA-MB-435, Melanoma MDA-MB-435, 10 μM): < 5%
- inhibition at 10 µM (MDA-MB-468, Breast cancer MDA-MB-468, 10 μM): < 5%
- inhibition at 10 µM (MOLT-4, Leukemia MOLT-4, 10 μM): < 5%
- inhibition at 10 µM (Melanoma M14, 10 μM): < 5%
- inhibition at 10 µM (Melanoma MALM-3M, 10 μM): 19.4%
- inhibition at 10 µM (NCI-H23, Non-small cell lung cancer NCI-H23, 10 μM): < 5%
- inhibition at 10 µM (NCI-H226, Non-small cell lung cancer NCI-H226, 10 μM): < 5%
- inhibition at 10 µM (NCI-H322M, Non-small cell lung cancer NCI-H322M, 10 μM): < 5%
- inhibition at 10 µM (NCI-H460, Non-small cell lung cancer NCI-H460, 10 μM): < 5%
- inhibition at 10 µM (NCI-H522, Non-small cell lung cancer NCI-H522, 10 μM): < 5%
- inhibition at 10 µM (NCI/ADR-RES, Ovarian cancer NCI/ADR-RES, 10 μM): < 5%
- inhibition at 10 µM (OVCAR-3, Ovarian cancer OVCAR-3, 10 μM): < 5%
- inhibition at 10 µM (OVCAR-4, Ovarian cancer OVCAR-4, 10 μM): < 5%
- inhibition at 10 µM (OVCAR-5, Ovarian cancer OVCAR-5, 10 μM): < 5%
- inhibition at 10 µM (OVCAR-8, Ovarian cancer OVCAR-8, 10 μM): < 5%
- inhibition at 10 µM (Prostate cancer PC-3, 10 μM): < 5%
- inhibition at 10 µM (RPMI-8226, Leukemia RPMI-8226, 10 μM): < 5%
- inhibition at 10 µM (RXF 393, Renal cancer RXF 393, 10 μM): < 5%
- inhibition at 10 µM (SF-268, CNS Cancer SF-268, 10 μM): < 5%
- inhibition at 10 µM (SF-295, CNS Cancer SF-295, 10 μM): < 5%
- inhibition at 10 µM (SF-539, CNS Cancer SF-539, 10 μM): < 5%
- inhibition at 10 µM (SK-MEL-2, Melanoma SK-MEL-2, 10 μM): < 5%
- inhibition at 10 µM (SK-MEL-5, Melanoma SK-MEL-5, 10 μM): < 5%
- inhibition at 10 µM (SK-MEL-28, Melanoma SK-MEL-28, 10 μM): < 5%
- inhibition at 10 µM (SK-OV-3, Ovarian cancer SK-OV-3, 10 μM): 5.11%
- inhibition at 10 µM (SN12C, Renal cancer SN12C, 10 μM): < 5%
- inhibition at 10 µM (SNB-19, CNS Cancer SNB-19, 10 μM): < 5%
- inhibition at 10 µM (SNB-75, CNS Cancer SNB-75, 10 μM): 5.56%
- inhibition at 10 µM (SW-620, Colon cancer SW-620, 10 μM): < 5%
- inhibition at 10 µM (T47D, Breast cancer T-47D, 10 μM): 6.23%
- inhibition at 10 µM (TK-10, Renal cancer TK-10, 10 μM): < 5%
- inhibition at 10 µM (U-251, CNS Cancer U251, 10 μM): < 5%
- inhibition at 10 µM (UACC-62, Melanoma UACC-62, 10 μM): 6.04%
- inhibition at 10 µM (UACC-257, Melanoma UACC-257, 10 μM): < 5%
- inhibition at 10 µM (UO-31, Renal cancer UO-31, 10 μM): 29.1%
